Like-named read-outs stand apart in the source and are kept apart here.

Consider five compounds from patent US6322771A, “Induction of pharmacological stress with adenosine receptor agonists” (priority 1999, dated 2001).

Data set [1] deals with patients. The following applies: 3,911 patients; cited from earlier work.
Data set [2] concerns patients. The conditions noted are these: 3,715 patients; cited from earlier work.
For data set [3], the system named is A1 adenosine receptors. The conditions noted are these: A1 versus A2A adenosine receptors; cited from earlier work.
Data set [4] concerns adult mongrel dogs. The conditions noted are these: for LCX coronary flow: baseline 42 ml/min.
For data set [5], the system named is patients. The following applies: 9,256 patients; cited from earlier work.
The subject of data set [6] is dog with critical LAD stenosis. How it is done: Following a 15 minute baseline stabilization period, the LAD snare occluder was tightened to produce a critical LAD stenosis. A critical stenosis was defined as one that produced no change in resting coronary flow, however coronary flow reserve was completely abolished. […] Five minutes later, an in vivo image was acquired and the animal was then immediately killed to prevent ^99m Tc-N-NOET redistribution. The heart was removed and sliced into 4 rings from apex to base. The heart slices were placed on a cardboard sheet, covered with plastic wrap, and ex vivo imaging of the heart slices was performed directly on the collimator of a conventional planar gamma camera. Image background subtraction was performed on the in vivo image using standard nuclear medicine software developed for this purpose. Defect magnitude was expressed as an LAD/LCX count ratio between counts in LAD and LCX regions of interest drawn on the in vivo and ex vivo heart images.

For the compound `OCCN(CCO)c1nc(N2CCCCC2)c2nc(N(CCO)CCO)nc(N3CCCCC3)c2n1` [dipyridamole], in data set [1], the “ST-segment changes on ECG” value is given as 8% and the headaches is recorded as 12%. Besides, in data set [2], the “fall of mean systolic blood pressure” value is listed as 14 mm Hg and the “patients with a >20% drop in systolic blood pressure” value is reported as 11%.
Consider `Nc1nc(Cl)nc2c1ncn2[C@@H]1O[C@H](CO)[C@@H](O)[C@H]1O` [Cl-Ado, 2-chloroadenosine], for which the “receptor subtype preference as activator” value in data set [3] is on record as “more potent activator of A1 adenosine receptors than of A2A adenosine receptors”.
The compound `Nc1ncnc2c1ncn2[C@@H]1O[C@H](CO)[C@@H](O)[C@H]1O` [adenosine] yielded an LCX flow in data set [4] (i.v. 250 μg/kg/min x 3 min) of 139 mL/min. Also, the arterial pressure in data set [4] (i.v. 250 μg/kg/min x 3 min, from 109 mm Hg) is recorded as 80 mm Hg. Also, in data set [5], the A-V conduction block is 8%, the ECG changes is given as 9%, the chest pain is 35% and the flushing is reported as 37%. Further, in data set [5], the headache is 14%, the “patients with adverse side effects” value is 82% and the “shortness of breath or dyspnea” value was 35%.
For the compound `CCNC(=O)[C@H]1O[C@@H](n2cnc3c(N)nc(C#CCC4CCC(COC(C)=O)CC4)nc32)[C@H](O)[C@@H]1O` (stereo partly drawn) [JMR-193e, [4-(3-{9[(4S,5S,2R,3R)-5-(N-ethylcarbamoyl)-3,4-dihydroxyoxolan-2-yl]-6-aminopurin-2-yl}prop-2-ynyl)cyclohexyl]methyl acetate], the LCX coronary flow in data set [4] (0.05 μg/kg/min x 10 min i.v. infusion) stood at 66 mL/min; in data set [4] (0.1 μg/kg/min x 10 min i.v. infusion), 75 mL/min; in data set [4] (0.2 μg/kg/min x 10 min i.v. infusion) it was 124 mL/min; in data set [4] (0.3 μg/kg/min x 10 min i.v. infusion), 153 mL/min; in data set [4] (0.4 μg/kg/min x 10 min i.v. infusion), 140 mL/min. In data set [4] (bolus 0.3 μg/kg), the “time flow remained elevated more than 2x normal” value was 3 to 4 min. The “time of maximal LCX flow post-injection” value in data set [4] (bolus 0.3 μg/kg) came out at 2.3 min. Also, in data set [4] (bolus 0.3 μg/kg, from 41 ml/min), the LCX flow amounted to 140 mL/min. For the same compound, the “pharmacodynamic t1/2” value in data set [4] (return of hemodynamics to baseline after terminating the infusion) was found to be 12 ± 2 min.
As to `CCNC(=O)[C@H]1O[C@@H](n2cnc3c(N)nc(C#CC[C@H]4CC[C@H](C(=O)OC)CC4)nc32)[C@H](O)[C@@H]1O` [DWH-146e], the “increase of coronary flow in the normal LCX coronary artery” value in data set [6] (0.3 μg/kg/min i.v. infusion) is recorded as around 5 fold. In addition, the “in vivo and ex vivo 99mTc-N-NOET images” value in data set [6] (critical LAD stenosis) is “readily detectable large anteroseptal perfusion defects”. In addition, the “change in mean arterial pressure” value in data set [6] (dog, in vivo) is “no change”. Besides, the “Heart Rate” value in data set [6] (peak, 0.3 μg/kg/min i.v. infusion, baseline 109, stenosis 123) was 143 BPM. This compound also had a dP/dt in data set [6] (peak, 0.3 μg/kg/min i.v. infusion, baseline 2906, stenosis 2713) of 2606 mm Hg · sec-1. For the same compound, in data set [6] (peak, 0.3 μg/kg/min i.v. infusion, normal artery, baseline 39, stenosis 38), the “LCX coronary flow” value worked out at 185 mL/min. In addition, the “LAD Coronary Flow” value in data set [6] (peak, 0.3 μg/kg/min i.v. infusion, stenosed artery, baseline 39, stenosis 37) was found to be 42 mL/min.
